In ChEMBL document CHEMBL1201862, “PubChem BioAssay data set” (2004):
Active and inactive are the calls of the source.

Experiments:
[1] = target: T1, Polyadenylate-binding protein 1 (Homo sapiens, UniProt P11940); test: PABP1 MLLE–PAM2 binding inhibitor potency, dose response, biochemical, fluorescence polarization, FITC-PAM2 peptide (AID 602259); format: functional; settings: read-out: IC50_Mean
[2] = target: T1, Polyadenylate-binding protein 1; test: PABP1 MLLE–PAM2 interaction inhibitors, dose response, miRNA deadenylation inhibitor project, biochemical, fluorescence polarization, Cy5-PAM2 peptide, secondary (AID 602260); format: functional; settings: read-out: IC50_Mean
[3] = target: T2, High affinity choline transporter 1 (Homo sapiens, UniProt Q9GZV3); test: CHT inhibitors, dose response, cell-based, 5-point CRC, membrane potential dye (AID 504840); format: functional
T2 sequence (Q9GZV3 whole entry): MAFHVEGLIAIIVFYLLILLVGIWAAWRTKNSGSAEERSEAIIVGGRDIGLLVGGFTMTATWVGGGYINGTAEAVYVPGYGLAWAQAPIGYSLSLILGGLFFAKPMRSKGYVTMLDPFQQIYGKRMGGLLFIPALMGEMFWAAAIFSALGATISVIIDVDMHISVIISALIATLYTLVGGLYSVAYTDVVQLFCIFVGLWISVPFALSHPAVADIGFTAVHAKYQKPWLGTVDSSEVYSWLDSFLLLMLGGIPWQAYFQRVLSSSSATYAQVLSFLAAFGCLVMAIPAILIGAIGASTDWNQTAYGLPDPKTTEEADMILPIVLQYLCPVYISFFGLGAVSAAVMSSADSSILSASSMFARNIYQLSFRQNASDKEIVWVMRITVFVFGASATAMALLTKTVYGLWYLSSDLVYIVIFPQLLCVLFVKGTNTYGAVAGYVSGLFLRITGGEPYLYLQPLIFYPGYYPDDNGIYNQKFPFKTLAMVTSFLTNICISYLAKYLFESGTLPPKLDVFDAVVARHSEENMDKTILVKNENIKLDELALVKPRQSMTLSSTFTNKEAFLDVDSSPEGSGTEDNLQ

[4] = target: FAD-linked sulfhydryl oxidase ALR (Homo sapiens, UniProt P55789); test: inhibitors of human ALR sulfhydryl oxidase, dose response, biochemical, H2O2 detection, luminescence, cherry-pick (AID 493248)
Sequence of FAD-linked sulfhydryl oxidase ALR (P55789 whole entry): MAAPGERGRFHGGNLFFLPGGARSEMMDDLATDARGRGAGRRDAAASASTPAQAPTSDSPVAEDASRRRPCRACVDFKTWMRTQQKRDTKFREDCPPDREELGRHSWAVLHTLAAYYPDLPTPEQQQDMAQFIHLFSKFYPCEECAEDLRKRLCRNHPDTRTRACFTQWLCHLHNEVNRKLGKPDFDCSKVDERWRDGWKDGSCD

[5] = target: T3, Replicative DNA helicase DnaB (Mycobacterium tuberculosis, UniProt P9WMR3); test: DnaB intein splicing inhibitors, dose response, biochemical, cell-free fluorescence (AID 449749); format: functional
T3 sequence (P9WMR3 whole entry): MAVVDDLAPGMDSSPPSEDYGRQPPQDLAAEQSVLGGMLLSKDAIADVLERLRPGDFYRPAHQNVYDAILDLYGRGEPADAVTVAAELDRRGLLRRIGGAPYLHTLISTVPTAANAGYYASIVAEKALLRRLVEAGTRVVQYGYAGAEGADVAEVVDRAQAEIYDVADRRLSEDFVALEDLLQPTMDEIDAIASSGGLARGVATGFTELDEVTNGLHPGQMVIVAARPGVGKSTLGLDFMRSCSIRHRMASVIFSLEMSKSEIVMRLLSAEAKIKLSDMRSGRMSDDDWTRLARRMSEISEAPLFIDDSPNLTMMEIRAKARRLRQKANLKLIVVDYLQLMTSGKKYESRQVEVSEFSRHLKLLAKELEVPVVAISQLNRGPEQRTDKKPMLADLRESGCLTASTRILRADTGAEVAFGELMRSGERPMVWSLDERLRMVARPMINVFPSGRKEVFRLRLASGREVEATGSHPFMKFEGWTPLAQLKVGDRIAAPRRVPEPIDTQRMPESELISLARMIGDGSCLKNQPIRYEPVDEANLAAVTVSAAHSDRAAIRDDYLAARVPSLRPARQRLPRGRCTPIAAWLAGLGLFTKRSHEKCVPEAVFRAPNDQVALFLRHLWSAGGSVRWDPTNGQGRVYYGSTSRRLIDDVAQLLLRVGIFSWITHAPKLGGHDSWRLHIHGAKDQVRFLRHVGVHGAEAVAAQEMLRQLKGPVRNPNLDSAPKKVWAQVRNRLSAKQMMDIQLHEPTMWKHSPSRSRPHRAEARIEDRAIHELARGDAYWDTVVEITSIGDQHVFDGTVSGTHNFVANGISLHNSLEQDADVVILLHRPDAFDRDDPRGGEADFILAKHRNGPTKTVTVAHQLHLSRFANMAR

Protein RecA = target: T4, Protein RecA (Mycobacterium tuberculosis, UniProt P9WHJ3); test: Fluorescence Cell-Free Homogeneous Dose Retest to Identify Inhibitors of RecA-Intein Splicing Activity. [Related pubchem assays (depositor defined):AID2097, AID2223, AID489010, AID492950]; format: functional
T4 sequence (P9WHJ3 whole entry): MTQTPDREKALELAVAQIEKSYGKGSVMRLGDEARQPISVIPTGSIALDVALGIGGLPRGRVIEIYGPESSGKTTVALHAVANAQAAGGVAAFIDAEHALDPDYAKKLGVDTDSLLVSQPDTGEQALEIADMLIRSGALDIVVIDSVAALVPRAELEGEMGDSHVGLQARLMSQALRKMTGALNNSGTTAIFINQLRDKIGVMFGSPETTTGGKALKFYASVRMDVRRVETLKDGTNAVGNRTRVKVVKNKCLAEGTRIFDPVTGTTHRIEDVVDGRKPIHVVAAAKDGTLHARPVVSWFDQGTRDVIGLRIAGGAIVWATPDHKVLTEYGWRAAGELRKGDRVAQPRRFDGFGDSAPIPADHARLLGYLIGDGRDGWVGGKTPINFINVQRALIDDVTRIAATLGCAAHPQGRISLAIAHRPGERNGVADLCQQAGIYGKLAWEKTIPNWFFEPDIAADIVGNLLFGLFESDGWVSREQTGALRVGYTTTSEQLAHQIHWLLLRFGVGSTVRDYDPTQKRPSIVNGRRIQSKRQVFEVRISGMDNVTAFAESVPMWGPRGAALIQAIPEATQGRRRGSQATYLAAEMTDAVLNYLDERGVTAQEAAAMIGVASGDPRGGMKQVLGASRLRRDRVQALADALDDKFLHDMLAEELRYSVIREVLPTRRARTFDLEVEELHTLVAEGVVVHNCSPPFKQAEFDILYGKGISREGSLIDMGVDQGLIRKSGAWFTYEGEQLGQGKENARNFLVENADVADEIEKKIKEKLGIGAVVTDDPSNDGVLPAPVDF

[6] = target: T5, RNA-binding protein pos-1 (Caenorhabditis elegans, UniProt G5EF15); test: inhibitors of POS-1/mex-3 RNA binding, dose response, biochemical, fluorescence polarization (AID 1964);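 further: purified POS-1 fused to maltose binding protein made in E. coli; potency of compounds blocking POS-1 binding to fluorescent RNA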
T5 sequence (G5EF15 whole entry): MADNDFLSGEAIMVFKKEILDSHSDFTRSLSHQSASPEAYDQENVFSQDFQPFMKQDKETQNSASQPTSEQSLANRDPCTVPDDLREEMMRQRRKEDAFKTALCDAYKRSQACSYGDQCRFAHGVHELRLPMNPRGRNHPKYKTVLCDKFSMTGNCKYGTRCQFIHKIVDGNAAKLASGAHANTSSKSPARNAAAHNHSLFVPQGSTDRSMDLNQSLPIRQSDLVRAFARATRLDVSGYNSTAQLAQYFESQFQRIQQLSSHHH

[7] = target: T6, Zinc finger protein mex-5 (Caenorhabditis elegans, UniProt Q9XUB2); test: MEX-5/TCR-2 RNA interaction inhibitors, dose response, biochemical, C. elegans, fluorescence polarization (AID 1960)
T6 sequence (Q9XUB2 whole entry): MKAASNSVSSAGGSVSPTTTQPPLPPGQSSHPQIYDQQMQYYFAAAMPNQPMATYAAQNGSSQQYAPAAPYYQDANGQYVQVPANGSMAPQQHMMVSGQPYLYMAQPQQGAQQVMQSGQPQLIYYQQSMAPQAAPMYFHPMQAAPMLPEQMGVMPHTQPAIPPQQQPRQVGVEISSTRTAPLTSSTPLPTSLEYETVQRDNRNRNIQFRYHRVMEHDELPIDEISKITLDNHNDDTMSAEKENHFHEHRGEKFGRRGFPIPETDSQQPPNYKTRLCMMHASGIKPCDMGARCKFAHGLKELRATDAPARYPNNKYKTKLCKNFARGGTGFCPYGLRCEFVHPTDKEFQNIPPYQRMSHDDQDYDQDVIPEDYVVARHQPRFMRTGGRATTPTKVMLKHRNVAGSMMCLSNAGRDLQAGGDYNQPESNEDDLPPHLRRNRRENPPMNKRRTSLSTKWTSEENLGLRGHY

BJ [8] = test: cells; format: functional, cell-based; settings: Homo sapiens
BJ [9] = test: cytotoxicity toward BJ-TERT-LT-ST fibroblasts, dose response, cell-based, RAS-independent, luminescence (AID 1935); format: functional; settings: Homo sapiens;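 further: BJ fibroblasts immortalized with TERT plus LT and ST oncogenes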
[10] = cytotoxicity toward DRD oncogenic fibroblasts, dose response, cell-based, non-viral oncogenic, luminescence (AID 1934); format: functional; settings: Homo sapiens
INS1 = test: beta cell apoptosis inhibitors, cytokine rescue, dose response, luminescence, retest (AID 449756); format: functional, cell-based; settings: Rattus norvegicus;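 further: cell death triggered by IL-1 beta plus TNF-alpha plus IFN-gamma mixture; protective hits raise ATP signal compared with cytokine alone wells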
BJ [11] = test: cytotoxicity toward BJ-TERT fibroblasts, dose response, cell-based, RAS-independent, luminescence (AID 1933); format: functional; settings: Homo sapiens

T1 sequence (P11940 whole entry): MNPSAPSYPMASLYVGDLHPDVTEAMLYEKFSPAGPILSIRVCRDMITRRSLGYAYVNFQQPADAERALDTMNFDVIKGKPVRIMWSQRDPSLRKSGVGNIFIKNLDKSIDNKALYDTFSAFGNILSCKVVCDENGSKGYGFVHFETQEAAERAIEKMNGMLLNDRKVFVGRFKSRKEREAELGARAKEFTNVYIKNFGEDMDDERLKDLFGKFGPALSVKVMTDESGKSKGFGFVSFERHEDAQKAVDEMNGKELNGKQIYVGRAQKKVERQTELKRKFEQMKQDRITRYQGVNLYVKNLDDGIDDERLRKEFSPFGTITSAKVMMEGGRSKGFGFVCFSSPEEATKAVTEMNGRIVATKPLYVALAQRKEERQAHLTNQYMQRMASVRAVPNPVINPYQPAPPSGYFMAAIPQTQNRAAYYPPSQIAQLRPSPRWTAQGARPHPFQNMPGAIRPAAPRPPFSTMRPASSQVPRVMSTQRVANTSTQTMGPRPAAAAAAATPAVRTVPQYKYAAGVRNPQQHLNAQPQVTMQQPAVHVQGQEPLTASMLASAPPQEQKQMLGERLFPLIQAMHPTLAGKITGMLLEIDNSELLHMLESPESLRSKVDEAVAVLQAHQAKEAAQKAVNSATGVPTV

Row | SMILES | IC50 [1] | IC50 [2] | IC50 [3] | EC50 [6] | EC50 [7] | also measured
1 | COc1ccc(Cc2c(O)nc(SCC(=O)NC34CC5CC(CC(C5)C3)C4)nc2O)cc1 | > 66 µM (inactive) | > 66 µM (inactive) |  |  |  | 
2 | Cc1nnc(Sc2nc3ccccc3o2)c2ccccc12 |  |  | 13.5 µM (active) |  |  | AC50 [4]: 3.26 µM (active); AC50 [5]: 18.4 µM (active); EC50 (Protein RecA): 1.28 µM (active)
3 | Cc1ccc(C(N)=S)c(C)c1 | > 66 µM (inactive) | > 66 µM (inactive) |  |  |  | 
4 | Cc1ccccc1NC(=O)c1ccc(F)c(S(=O)(=O)NCC2CCCO2)c1 (stereo not drawn) |  |  | 12.3 µM (active) |  |  | 
5 | O=C1CC(c2ccccc2)CC(=O)C1Sc1ccc(Cl)cc1 (stereo not drawn) | > 66 µM (inactive) | > 66 µM (inactive) |  |  |  | 
6 | FC(F)(F)c1ccc2c(c1)C1C=CCC1C(c1ccncc1)N2 (stereo not drawn) |  |  |  | > 300 µM (not active) | > 300 µM (not active) | 
7 | COC(=O)c1cccc(-n2c(CCC(=O)O)ccc2-c2cccs2)c1 |  |  |  | > 300 µM (not active) | > 300 µM (not active) | 
8 | CC(C)(C)c1ccc(/C=C2\Oc3cc(O)ccc3C2=O)cc1 |  |  |  | 31.4 µM (active) | 28.8 µM (active) | 
9 | O=C(Cn1ncc2c3ccccc3n(Cc3ccccc3)c2c1=O)NCCCN1CCCC1 |  |  | 13.2 µM (active) |  |  | 
10 | N#CC(C#N)=C(Nc1ccc(F)cc1)SCc1cccc(F)c1 |  |  | 4.79 µM (active) |  |  | EC50 (BJ [8]): 33.2 µM (active); EC50 (BJ [9]): > 150 µM (inconclusive); EC50 [10]: 29.3 µM (active); AC50 (INS1): 3.26 µM (active); EC50 (BJ [11]): 13.1 µM (active)
11 | Cn1c(=O)c2nc(COc3ccccc3)[nH]c2n(C)c1=O | 29.7 µM (inactive) | 33.5 µM (inactive) |  |  |  | 
12 | Cc1cccn2c(=O)c3cc(C#N)/c(=N\C(=O)c4cccs4)n(CCCOC(C)C)c3nc12 |  |  |  | 141 µM (inconclusive) | > 300 µM (not active) | 
